Data published in patent US20090209046A1, “Neutral Pharmaceuticals” (priority 2006, published 2009).
≈ marks a conversion by molar mass, not a printed value. Where two headings read alike, the source gives them in different places. Marks after values point to notes of the source that are not given here.

Tests used:
[1] = Measurement of P: partition coefficient in 1-octanol/water system; conditions: 25° C., observed, for aspirin and caffeine the parent drug itself
[2] = Measurement of solubility in water, octanol saturated water and water saturated octanol; conditions: for logSR (Swo/Sow): log solubility ratio; for logSR (Swo/Sow) / Sow / Swo / Sw: 25° C.; for Sow: solubility in octanol saturated water; for Swo: solubility in water saturated octanol; for Sw: solubility in water
Experimental: Solubilities were determined at 25° C. in water (Sw), octanol saturated water (Sow), water saturated octanol (Swo). An excess of the sample was added to 15 ml of each solvent and stirred vigorously at 25° C. for 8 hours. […] The supernatant was collected. The supernatant samples after appropriate dilutions with respective solvent were analyzed by UV spec using a standard plot of solute in the same medium. Solubility of copper acetate in water saturated octanol was determined by extracting 200 ml saturated wo solution into 20 ml ow.

[3] = Stability of mixed-ligand Cu(II) complexes in solution (ESI-MS, 1H DOSY NMR); assay type: physicochemical; conditions: 1H DOSY NMR in D2O, 298K
Experimental: NMR tubes with a 5-mm internal diameter were used. […] Diffusion coefficients were measured by incrementing the amplitude of the field gradient pulse over 32 steps (0.5-30 G/cm). The bipolar gradient duration and the diffusion time were optimized to 2.4 ms and 14.9 ms, respectively. The intensities were fitted to an exponential decay using the SimFit program within the Topspin software to provide estimates of the diffusion constant.
The formation of Cu(ASP)2(AL)2(H2O) is also observed by us from the ESI-MS of ASP-7 and ASP-8 in aqueous solution. Indeed, for mononuclear Cu(II) species, the coordination of anionic API and neutral AL to copper in solution has been confirmed by the mass spectra.
Since structures of binuclear Cu(II) complexes are analogous, as a model, ASP-3 was investigated by using NMR diffusion measurement for stability studies. Diffusion-Ordered Spectroscopy […]) methods^11 are based on pulsed-field gradient spin-echo NMR experiments. […] The small peak on the left at 8.160 ppm is assigned to one proton of 3-Br-Py by comparing the ^1H NMR spectra of ASP-3 and ASP-3/3-Br-Py mixture. Peaks in the range of 7-8 ppm are due to the peak overstocking of aspirin and 3-Br-Py aromatic protons. […] The diffusion coefficient for ASP-3 was 3.819×10^−9 m^2/s. […]

[4] = water, cited from earlier work
[5] = physchem

Compound	logP of complex [1]	logSR (Swo/Sow) [2]	Sow [2]	Swo [2]	Sw [2]	diffusion coefficient [3]	Sw ([4]; from reference Koch et al. J. Pharm. Sci. 1978)	logP [5]	solubility thermodynamic at 8 h ([2]; octanol saturated water, 25 °C, water, thermodynamic from solid)	Sw ([4]; from MSDS)
CC(=O)Oc1ccccc1C(=O)[O-].CC(=O)Oc1ccccc1C(=O)[O-].CC(=O)Oc1ccccc1C(=O)[O-].CC(=O)Oc1ccccc1C(=O)[O-].[Cu+2].[Cu+2] [ASP-1, Cu2(ASP)4]	−0.2371(267)	−0.4847	2.981(3) mg/ml	0.9767(36) mg/ml	3.414(25) mg/ml					
CC(=O)Oc1ccccc1C(=O)[O-].CC(=O)Oc1ccccc1C(=O)[O-].CC(=O)Oc1ccccc1C(=O)[O-].CC(=O)Oc1ccccc1C(=O)[O-].CN(C)C=O.CN(C)C=O.[Cu+2].[Cu+2] [ASP-2, Cu2(ASP)4(DMF)2]	−0.3484(166)	−0.4873	4.493(4) mg/ml	1.463(26) mg/ml	3.092(33) mg/ml					
Brc1cccnc1.Brc1cccnc1.CC(=O)Oc1ccccc1C(=O)[O-].CC(=O)Oc1ccccc1C(=O)[O-].CC(=O)Oc1ccccc1C(=O)[O-].CC(=O)Oc1ccccc1C(=O)[O-].[Cu+2].[Cu+2] [ASP-3, Cu2(ASP)4(3-Br-Py)2]	0.1066(58)	−0.09583	1.566(5) mg/ml	1.256(15) mg/ml	1.564(3) mg/ml	3.819×10^−9 m^2/s				
CC(=O)Oc1ccccc1C(=O)[O-].CC(=O)Oc1ccccc1C(=O)[O-].CC(=O)Oc1ccccc1C(=O)[O-].CC(=O)Oc1ccccc1C(=O)[O-].[Cu+2].[Cu+2].c1ccc2ncccc2c1.c1ccc2ncccc2c1 [ASP-4, Cu2(ASP)4(Quinoline)2]	0.4772(140)	0.2133	3.342(3) mg/ml	5.460(23) mg/ml	2.729(1) mg/ml					
CC(=O)Oc1ccccc1C(=O)[O-].CC(=O)Oc1ccccc1C(=O)[O-].[Cu+2].c1ccncc1.c1ccncc1 [ASP-5, Cu(ASP)2(Pyridine)2]		−0.4770	3.629(24) mg/ml	1.210(47) mg/ml	3.425(21) mg/ml					
CC(=O)Oc1ccccc1C(=O)[O-].CC(=O)Oc1ccccc1C(=O)[O-].NC(=O)c1ccncc1.NC(=O)c1ccncc1.[Cu+2] [ASP-7, Cu(ASP)2(Isonicotinamide)2]	−0.4723(272)	−0.5333	5.654(20) mg/ml	1.673(9) mg/ml	9.259(5) mg/ml					
CC(=O)Oc1ccccc1C(=O)[O-].CC(=O)Oc1ccccc1C(=O)[O-].NC(=O)c1cccnc1.NC(=O)c1cccnc1.[Cu+2] [ASP-8, Cu(ASP)2(Nicotinamide)2]	−0.5257(136)	−0.6490	3.361(29) mg/ml	0.7541(97) mg/ml	4.417(50) mg/ml					
CC(=O)Oc1ccccc1C(=O)[O-].CC(=O)Oc1ccccc1C(=O)[O-].[Cu+2].c1ccc(-c2cccnc2)cc1.c1ccc(-c2cccnc2)cc1 [ASP-9, Cu(ASP)2(3-Phenyl-Pyridine)2]		0.4495	0.4085(17) mg/ml	1.150(20) mg/ml	0.5415(7) mg/ml					
CC(=O)Oc1ccccc1C(=O)O [Aspirin(ASP), acetylsalicylic acid, reference compound]		1.101		54.16(94) mg/ml			4.600^b mg/ml	1.32	4300 µg/mL (≈ 23.8 mM)	
CC(=O)[O-].CC(=O)[O-].COc1cccc(OC)c1C(=O)[O-].COc1cccc(OC)c1C(=O)[O-].O.O.[Cu+2].[Cu+2] [MC-2, Cu2(CH3COO)2(DMB)2(H2O)2]	−1.496(15)	−1.428	15.64(14) mg/ml	0.5841(103) mg/ml	15.82(11) mg/ml					
COc1cccc(OC)c1C(=O)[O-].COc1cccc(OC)c1C(=O)[O-].COc1cccc(OC)c1C(=O)[O-].COc1cccc(OC)c1C(=O)[O-].O.O.[Cu+2].[Cu+2] [MC-3, Cu2(DMB)4(H2O)2]	−1.442(27)	−0.9168	31.97(19) mg/ml	3.872(125) mg/ml	33.61(21) mg/ml					
O.O.O=C(Oc1ccccc1C(=O)[O-])c1ccccc1O.O=C(Oc1ccccc1C(=O)[O-])c1ccccc1O.O=C(Oc1ccccc1C(=O)[O-])c1ccccc1O.O=C(Oc1ccccc1C(=O)[O-])c1ccccc1O.[Cu+2].[Cu+2] [SAS-1, Cu2(SAS)4(H2O)2]	0.06927(1394)	1.033	0.2962(10) mg/ml	3.200(5) mg/ml	0.2791(6) mg/ml					
Clc1cccnc1.Clc1cccnc1.O=C(Oc1ccccc1C(=O)[O-])c1ccccc1O.O=C(Oc1ccccc1C(=O)[O-])c1ccccc1O.O=C(Oc1ccccc1C(=O)[O-])c1ccccc1O.O=C(Oc1ccccc1C(=O)[O-])c1ccccc1O.[Cu+2].[Cu+2] [SAS-3, Cu2(SAS)4(3-Cl-Pyridine)2]		0.7472	0.1259(4) mg/ml	0.7034(61) mg/ml	0.1239(1) mg/ml					
O=C(Oc1ccccc1C(=O)[O-])c1ccccc1O.O=C(Oc1ccccc1C(=O)[O-])c1ccccc1O.O=C(Oc1ccccc1C(=O)[O-])c1ccccc1O.O=C(Oc1ccccc1C(=O)[O-])c1ccccc1O.[Cu+2].[Cu+2].c1ccc(Cc2ccncc2)cc1.c1ccc(Cc2ccncc2)cc1 [SAS-4, Cu2(SAS)4(4-Benzyl-Pyridine)2]		1.336	0.0153(3) mg/ml	0.3314(22) mg/ml	0.0134(3) mg/ml					
C1CCOC1.C1CCOC1.O=C(Oc1ccccc1C(=O)[O-])c1ccccc1O.O=C(Oc1ccccc1C(=O)[O-])c1ccccc1O.O=C(Oc1ccccc1C(=O)[O-])c1ccccc1O.O=C(Oc1ccccc1C(=O)[O-])c1ccccc1O.[Cu+2].[Cu+2].c1ccc(-c2ccncc2)cc1.c1ccc(-c2ccncc2)cc1 [SAS-5, Cu2(SAS)4(4-Phenyl-Pyridine)2(THF)2]	1.231(53)	1.593	0.0315(2) mg/ml	1.236(18) mg/ml	0.0303(3) mg/ml					
O=C(Oc1ccccc1C(=O)[O-])c1ccccc1O.O=C(Oc1ccccc1C(=O)[O-])c1ccccc1O.[Cu+2].c1ccncc1.c1ccncc1.c1ccncc1 [SAS-6, Cu(SAS)2(Pyridine)3]		0.7655	0.3291(8) mg/ml	1.918(5) mg/ml	0.4065(8) mg/ml					
Cc1ccncc1.Cc1ccncc1.O=C(Oc1ccccc1C(=O)[O-])c1ccccc1O.O=C(Oc1ccccc1C(=O)[O-])c1ccccc1O.[Cu+2] [SAS-8, Cu(SAS)2(4-Me-Pyridine)2]		0.9488	0.2174(10) mg/ml	1.932(23) mg/ml	0.2301(18) mg/ml					
CCc1ccncc1.CCc1ccncc1.O=C(Oc1ccccc1C(=O)[O-])c1ccccc1O.O=C(Oc1ccccc1C(=O)[O-])c1ccccc1O.[Cu+2] [SAS-9, Cu(SAS)2(4-Et-Pyridine)2]		1.115	0.1104(8) mg/ml	1.438(9) mg/ml	0.1143(2) mg/ml					
Cu2(CH3COO)4(H2O)2 [MC-1, reference compound]	−2.222(553)	−2.807		0.1161(438) mg/ml						72^a mg/ml
Cu(ASP)2(Isonicotinamide)2(AcCN)2 [ASP-6]	−0.4647(274)	−0.4980	5.767(7) mg/ml	1.832(17) mg/ml	9.315(10) mg/ml					
Cu(SAS)2(Isonicotinamide)2(AcCN)2/3 [SAS-7]	0.03802(967)	0.4241	0.2890(10) mg/ml	0.8344(165) mg/ml	0.3143(9) mg/ml					
